Experimental findings from patent US7414054B2, “3-(arylamino)methylene-1, 3-dihydro-2H-indol-2-ones as kinase inhibitors” (Allergan, Inc., priority 2001, dated 2008) are described below.

Series [1] has as its target T1, cytoplasmic domain of the human VEGF receptor (VEGFR-2) (Homo sapiens, UniProt P35968).
T1 construct: The cytoplasmic domain of the human VEGF receptor (VEGFR-2) was expressed as a Histidine-tagged fusion protein; His (Histidine tag); made in house; host or cells: insect cells (baculovirus)
The series is described as follows: KDR Assay. Type of series: biochemical. As to conditions: His-VEGFR-2; 3.6 μM ATP. The procedure:
Automated FLIPR (Fluorometric Imaging Plate Reader) technology was used to screen for inhibitors of VEGF induced increases in intracellular calcium levels in fluorescent dye loaded endothelial cells. HUVEC (human umbilical vein endothelial cells) (Clonetics) were seeded in 96-well fibronectin coated black-walled plates overnight at 37° C./5% CO2. Cells were loaded with calcium indicator Fluo-4 for 45 minutes at 37° C. Cells were washed 4 times (Original Cell Wash, Labsystems) to remove extracellular dye. Test compounds were reconstituted in 100% DMSO and added to the cells to give a final DMSO concentration of 0.1%. For screening, cells were pre-incubated with test agents for 30 minutes, at a single concentration (10 μM) or at concentrations ranging from 0.01 to 10.0 μM followed by VEGF stimulation (5 ng/mL). Changes in fluorescence at 516 nm were measured simultaneously in all 96 wells using a cooled CCD camera. Data were generated by determining max-min fluorescence levels for unstimulated, stimulated, and drug treated samples. IC50 values for test compounds were calculated from % inhibition of VEGF stimulated responses in the absence of inhibitor. Protocol for KDR Assay: KDR Assay: The cytoplasmic domain of the human VEGF receptor (VEGFR-2) was expressed as a Histidine-tagged fusion protein following infection of insect cells using an engineered baculovirus. His-VEGFR-2 was purified to homogeneity, as determined by SDS-PAGE, using nickel resin chromatography. Kinase assays were performed in 96 well microtiter plates that were coated overnight with 30 μg of poly-Glu-Tyr (4:1) in 10 mM Phosphate Buffered Saline (PBS), pH 7.2-7.4. The plates were incubated with 1% BSA and then washed four times with PBS prior to starting the reaction. Reactions were carried out in 120 μL reaction volumes containing 3.6 μM ATP in kinase buffer (50 mM Hepes buffer pH 7.4, 20 mM MgCl2, 0.1 mM MnCl2 and 0.2 mM Na3VO4). Test compounds were reconstituted in 100% DMSO and added to the reaction to give a final DMSO concentration of 5%. Reactions were initiated by the addition 0.5 ng of purified protein. Following a ten minute incubation at 25° C., the reactions were washed four times with PBS containing 0.05% Tween-20. 100 μl of a monoclonal anti-phosphotyrosine antibody-peroxidase conjugate was diluted 1:10000 in PBS-Tween-20 and added to the wells for 30 minutes. […] The reaction was terminated by the addition of 100 μl of 2.5N H2SO4 to each well and read using a microplate ELISA reader set at 492 nm. IC50 values for compound inhibition were calculated directly from graphs of optical density (arbitrary units) versus compound concentration following subtraction of blank values. […]

Series [2] relates to VEGF induced increases in intracellular calcium levels in HUVEC (human umbilical vein endothelial cells). The series is described as follows: VEGF Stimulated Ca++ Signal In Vitro (FLIPR). In kind it is cell-based. Conditions: VEGF 5 ng/mL; for IC50: 0.01 to 10.0 μM. The method, then: VEGF Stimulated Ca^++ Signal In Vitro
Automated FLIPR (Fluorometric Imaging Plate Reader) technology was used to screen for inhibitors of VEGF induced increases in intracellular calcium levels in fluorescent dye loaded endothelial cells. HUVEC (human umbilical vein endothelial cells) (Clonetics) were seeded in 96-well fibronectin coated black-walled plates overnight at 37° C./5% CO2. Cells were loaded with calcium indicator Fluo-4 for 45 minutes at 37° C. Cells were washed 4 times (Original Cell Wash, Labsystems) to remove extracellular dye. Test compounds were reconstituted in 100% DMSO and added to the cells to give a final DMSO concentration of 0.1%. For screening, cells were pre-incubated with test agents for 30 minutes, at a single concentration (10 μM) or at concentrations ranging from 0.01 to 10.0 μM followed by VEGF stimulation (5 ng/mL). Changes in fluorescence at 516 nm were measured simultaneously in all 96 wells using a cooled CCD camera. Data were generated by determining max-min fluorescence levels for unstimulated, stimulated, and drug treated samples. IC50 values for test compounds were calculated from % inhibition of VEGF stimulated responses in the absence of inhibitor. Protocol for KDR Assay: KDR Assay: The cytoplasmic domain of the human VEGF receptor (VEGFR-2) was expressed as a Histidine-tagged fusion protein following infection of insect cells using an engineered baculovirus. His-VEGFR-2 was purified to homogeneity, as determined by SDS-PAGE, using nickel resin chromatography. Kinase assays were performed in 96 well microtiter plates that were coated overnight with 30 μg of poly-Glu-Tyr (4:1) in 10 mM Phosphate Buffered Saline (PBS), pH 7.2-7.4. The plates were incubated with 1% BSA and then washed four times with PBS prior to starting the reaction. Reactions were carried out in 120 μL reaction volumes containing 3.6 μM ATP in kinase buffer (50 mM Hepes buffer pH 7.4, 20 mM MgCl2, 0.1 mM MnCl2 and 0.2 mM Na3VO4). Test compounds were reconstituted in 100% DMSO and added to the reaction to give a final DMSO concentration of 5%. Reactions were initiated by the addition 0.5 ng of purified protein. Following a ten minute incubation at 25° C., the reactions were washed four times with PBS containing 0.05% Tween-20. 100 μl of a monoclonal anti-phosphotyrosine antibody-peroxidase conjugate was diluted 1:10000 in PBS-Tween-20 and added to the wells for 30 minutes. Following four washes with PBS-Tween-20, 100 μl of O-phenylenediamine Dihydrochloride in Phosphate-citrate buffer, containing urea hydrogen peroxide, was added to the wells for 7 minutes as a colorimetric substrate for the peroxidase. The reaction was terminated by the addition of 100 μl of 2.5N H2SO4 to each well and read using a microplate ELISA reader set at 492 nm. IC50 values for compound inhibition were calculated directly from graphs of optical density (arbitrary units) versus compound concentration following subtraction of blank values. VEGF-induced Dermal Extravasation in Guinea Pig (Miles Assay). Male Hartley guinea pigs (300-600 g) were anesthetized with isofluorane, sheared, and given a single dose of drug or the respective vehicle. The guinea pigs were dosed orally unless indicated otherwise in Table 3. Ten minutes prior to the end of drug treatment, guinea pigs were anesthetized with isofluorane, and 0.5% Evans blue dye (EBD) in PBS (13-15 mg/kg dose of EBD) was injected intravenously. After 5 minutes, triplicate intradermal injections of 100 ng rhVEGF165 in 100 μl PBS and of 100 μl PBS alone were administered on the flank. After 20 minutes, each animal was euthanized with Pentosol, and the skin containing the intradermal injection sites was removed for image analysis.

Series [3] concerns laser-induced choroidal neovascularization. The series is described as follows: Laser-induced Choroidal Neovascularization (CNV) in Rat (CNV Assay). Type of series: in vivo. The procedure: Laser-induced Choroidal Neovascularization (CNV) in Rat (CNV Assay). CNV was induced and quantified in this model as previously described (Edelman and Castro. Exp. Eye Res. 2000; 71:523-533). On day 0, male Brown Norway rats (200-300 g) were anesthetized with 100 mg/kg Ketamine and 10 mg/kg Xylazine, and pupils were dilated with 1% Tropicamide. Using the blue-green setting of a Coherent Novus Argon Laser, 3 laser burns (90 mW for 0.1 s; 100 μm diameter) were given to each eye between the retinal vessels around the optic nerve head. Rats were dosed with test compounds in their indicated vehicles orally once daily.
On day 10, rats were sacrificed with 100% CO2, and blood vessels were labeled by vascular perfusion with 10 mg/ml FITC-dextran (MW 2×10^6). Using an epifluorescence microscope (20×) coupled to a spot digital camera and a PC, images were obtained from the flat mounts of the RPE-choroid-sclera from each eye, and the area occupied by hyperfluorescent neovessels within each laser lesion was measured using ImagePro 4 software.
To determine the dose required for 50% inhibition (ID50), the percent inhibition data was plotted as a function of oral dose, using the ‘best-fit’ analysis within MicroSoft Excel software. The ID50 value was verified visually by using the plotted data (horizontal line from 50% y value, at intersection with best-fit line drop vertical line to x axis (dose)).

T1 sequence (P35968 786-1356 limits assumed): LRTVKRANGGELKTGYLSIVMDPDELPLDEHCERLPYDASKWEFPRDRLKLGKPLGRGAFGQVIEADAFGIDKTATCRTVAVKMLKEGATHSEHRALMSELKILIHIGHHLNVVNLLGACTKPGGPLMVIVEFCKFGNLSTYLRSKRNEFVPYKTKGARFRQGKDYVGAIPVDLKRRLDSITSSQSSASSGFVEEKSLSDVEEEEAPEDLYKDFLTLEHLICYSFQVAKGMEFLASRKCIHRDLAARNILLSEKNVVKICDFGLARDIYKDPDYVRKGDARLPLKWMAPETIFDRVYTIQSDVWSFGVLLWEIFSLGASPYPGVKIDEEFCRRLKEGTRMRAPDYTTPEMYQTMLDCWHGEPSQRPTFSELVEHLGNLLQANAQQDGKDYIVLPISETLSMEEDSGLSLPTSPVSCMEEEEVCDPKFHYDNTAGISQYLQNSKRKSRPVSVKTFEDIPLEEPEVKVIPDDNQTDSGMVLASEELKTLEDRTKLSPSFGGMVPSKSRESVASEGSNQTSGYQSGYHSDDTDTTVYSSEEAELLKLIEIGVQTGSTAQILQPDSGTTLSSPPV

A word on the IC50: it is the concentration that inhibits the measured activity by half. Regarding “4-(5-Chloro-2-oxo-1,2-dihydro-indol-3-ylidenemethyl)-6-indazolylamine [Example 103]”, the IC50 in series [1] came out at 480 nM; in series [2] it was 1040 nM. Further, the “VEGF Stimulated Ca^++ signal assay % inhibition @ 10 μM” value in series [2] was 96.59%. As for `O=C1Nc2ccccc2C1=CNc1cccc(Br)c1` [Example 2], in series [2], the “VEGF Stimulated Ca^++ signal assay % inhibition @ 10 μM” value is −0.5%. As to `O=C1Nc2ccccc2C1=CNc1ccc(N2CCOCC2)cc1` [Example 40], the “CNV Assay % inhibition (result in words)” value in series [3] (100 mg/kg (sid), PEG400, oral) is on record as “toxic”.

Regarding `CC(O)c1ccc(NC=C2C(=O)Nc3ccc(Cl)cc32)cc1` (stereo not shown) [Example 72, 5-Chloro-3-{[4-(1-hydroxy-ethyl)-phenylamino]-methylene}-1,3-dihydro-indol-2-one], in series [2], the “VEGF Stimulated Ca^++ signal assay % inhibition @ 10 μM” value was found to be 81.50% and the half-maximal inhibitory concentration (IC50) was determined as 1560 nM. On to `O=C1Nc2ccccc2C1=CNc1ccc2c(c1)OCO2` [Example 80, 3-[(3,4-Methylenedioxyphenylamino)-methylene]-11,3-dihydro-indol-2-one], for which, in series [2], the “VEGF Stimulated Ca^++ signal assay % inhibition @ 10 μM” value was found to be 3.50%. One may read the inhibition as the share of the control response that was lost under treatment. Take `COc1ccc(NC=C2C(=O)Nc3ccc(Cl)cc32)cc1F` [Example 105, 5-Chloro-3-[(3-fluoro-4-methoxyphenylamino)-methylene]-1,3-dihydro-indol-2-one]: the inhibition at 10 µM in series [2] (Homo sapiens) is 17.5%. As to `Cc1cccc2c1C(=CNc1ccc(C(=O)O)c(O)c1)C(=O)N2` [Example 155, 2-Hydroxy-4-[(4-methyl-2-oxo-1,2-dihydro-indol-3-ylidenemethyl)-amino]-benzoic acid], in series [1], the IC50 turned out to be 400 nM. Same read-out and setting: next, `CCN(CC)Cc1cc(NC=C2C(=O)Nc3cccc(C)c32)ccc1O` [Example 161, 3-[(3-Diethylaminomethyl-4-hydroxy-phenylamino)-methylene]-4-methyl-1,3-dihydro-indol-2-one]: 160 nM. Usually inhibition in vivo stands for the drop in the measured response relative to a control, in per cent. Read a low inhibition in vivo as little suppression. In series [3] (Rattus norvegicus, 240 h, 80 mg/kg (sid), corn oil, oral), `CCN(CC)CCCOc1ccc(NC=C2C(=O)Nc3ccccc32)cc1` [Example 214, 3-{[4-(3-Diethylamino-propoxy)-phenylamino]-methylene}-1,3-dihydro-indol-2-one] gave an inhibition in vivo at 80 mg/kg of 85%. In the case of `O=C1Nc2ccc(F)cc2C1=CNc1ccc(N2CCCCC2)cc1` [Example 221], the IC50 in series [1] was 380 nM; in series [2] (Homo sapiens) it was no more than 1000 nM. In series [2] (Homo sapiens), the inhibition at 10 µM turned out to be 97.6%. For the compound `Cc1cccc2c1C(=CNc1ccc(NCCN3CCOCC3)cc1)C(=O)N2` [Example 242, 4-Methyl-3-{[4-(2-morpholin-4-yl-ethylamino)-phenylamino]-methylene}-1,3-dihydro-indol-2-one], the “VEGF Stimulated Ca^++ signal assay % inhibition @ 10 μM” value in series [2] amounted to 95.82%.
